Data: patent publication US8906395B2, “Pharmaceutical composition in which solubility of partially soluble tricyclic derivative is improved” (Jeil Pharmaceutical Co., Ltd., priority 2010, dated 2014)
Converted amounts (≈) assume the structure as drawn.

What was measured:
cancer cell lines = settings: cited from earlier work
HUVEC cells = settings: cited from earlier work
[1] = compared to a colchicine or taxol injection; cited from earlier work
[2] = Solubility of tricyclic derivative compound in water (HPLC); type: physicochemical; settings: distilled water, room temperature, stirred 24 hours, 0.2 μm filtrate
Protocol: The solubility of the tricyclic derivative compound of Formula 1 in water was measured in the following manner.
1.42 mg of the tricyclic derivative compound was dissolved in acetonitrile to prepare […] of a solution which was then serially diluted to prepare 50 μl/ml, 20 μl/ml and 10 μl/ml of standard solutions. 3-ethoxythiocolchicine as an internal standard was added to each of the standard solutions which were then analyzed by HPLC to measure the area ratio of the tricyclic derivative compound.
Then, 1 g of the tricyclic derivative compound was added to 10 ml of distilled water to make a suspension which was then stirred at room temperature for 24 hours to sufficiently dissolve the compound. Then, the suspension was filtered through a 0.2 μm membrane to remove insoluble materials, and the remaining filtrate was analyzed by HPLC using 3-ethoxythiocolchicine as an internal standard to measure the area ratio of the tricyclic derivative compound, which was then compared with the area ratio of the standard curve shown in FIG. 1, thereby determining the concentration of the tricyclic derivative compound dissolved in water.

[3] = Solubility of tricyclic derivative compound in solubilizing agents (HPLC); type: physicochemical
Protocol: The solubility of the tricyclic derivative compound in a solubilizing agent was measured in the following manner.

tumor = settings: in vivo; cited from earlier work

For CCOc1cc2c(c(OC)c1OC)-c1ccc(SC)c(=O)cc1[C@@H](NC(=O)c1cccc(CO[N+](=O)[O-])c1F)CC2 [tricyclic derivative compound], the “cytotoxicity against cancer cell lines” value (cancer cell lines) is given as “very strong cytotoxicity”, the angiogenesis inhibitory activity (HUVEC cells) is given as “strong angiogenesis inhibitory activity” and the “toxicity in animal toxicity test” value [1] is given as “significantly reduced toxicity”. For the same compound, the solubility in water [2] was 0.00 μl/ml, the Solubility ([3]; PEG 400:water 0:100) was “Not detected” and the solubility at 24 h ([3]; PEG 400:water 10:90, aqueous with cosolvent or surfactant or cyclodextrin) was 0.21 µg/mL (≈ 0.359 µM). For the same compound, the solubility at 24 h ([3]; PEG 400:water 20:80, aqueous with cosolvent or surfactant or cyclodextrin) was 2.94 µg/mL (≈ 5.03 µM), the solubility at 24 h ([3]; PEG 400:water 30:70, aqueous with cosolvent or surfactant or cyclodextrin) was 1.24 µg/mL (≈ 2.12 µM) and the solubility at 24 h ([3]; PEG 400:water 40:60, aqueous with cosolvent or surfactant or cyclodextrin) was 53.9 µg/mL (≈ 92.3 µM). The solubility at 24 h ([3]; PEG 400:water 50:50, aqueous with cosolvent or surfactant or cyclodextrin) was 189 µg/mL (≈ 323 µM), the solubility at 24 h ([3]; PEG 400:water 100:0, organic solvent or mixture) was 52000 µg/mL (≈ 89000 µM) and the solubility at 24 h ([3]; benzyl alcohol, organic solvent or mixture, solvent: Benzylalcohol) was > 103000 µg/mL. The solubility at 24 h ([3]; organic solvent or mixture, solvent: Ethanol) was 35 µg/mL (≈ 59.9 µM), the solubility at 24 h ([3]; organic solvent or mixture, solvent: Glycerin) was 4.8 µg/mL (≈ 8.21 µM) and the solubility at 24 h ([3]; organic solvent or mixture, solvent: N,N-dimethylacetamide) was > 218000 µg/mL. For the same compound, the solubility at 24 h ([3]; organic solvent or mixture, solvent: Polyethylene glycol 400 (PEG 400)) was 52000 µg/mL (≈ 89000 µM), the solubility at 24 h ([3]; organic solvent or mixture, solvent: Propylene glycol) was 2300 µg/mL (≈ 3930 µM) and the Solubility ([3]; solvent: 5% aqueous solution of hydrochloric acid) was “Not detected”. For the same compound, the Solubility ([3]; solvent: 5% aqueous solution of sodium hydrogen carbonate) was “Not detected”, the Solubility ([3]; solvent: 5% aqueous solution of sodium oxide) was “Not detected” and the Solubility ([3]; solvent: Water) was “Not detected”. The “tumor size and weight” value (tumor) was “significantly reduces the tumor size and weight”.
